The results in this text go back to the OligoGym collection.

Where “and” joins values, the source holds several entries; their conditions need not be identical. Identical values can stand only once. After the bases stand the sugars from the 5' end (letter, count) and the backbone: PS all phosphorothioate, else s phosphorothioate and o phosphodiester by linkage. Methylation of C is not given here. e = 2'-O-(2-methoxyethyl) (MOE); k = constrained ethyl (cEt); d = 2'-deoxy (DNA)

For this data set, the target named is MALAT1. Conditions: ASO, A431, 0.005 µM.
As to TACATGTTCCCACCCA (sugars k3 d10 k3, PS), the target mRNA inhibition is 39%.

TACCGCACAGCTCGGG (sugars k3 d10 k3, PS): the target mRNA inhibition worked out at 20%.

For the sequence TACCTTAACATCTTGT (sugars k3 d10 k3, PS), the target mRNA inhibition came to 14%.

Turning to TACGAAACTCCCCCAT (sugars k3 d10 k3, PS), the target mRNA inhibition came to 6%.

For TACGAAAGTCCTTCAC (sugars k3 d10 k3, PS), the target mRNA inhibition was found to be 35%.

Take TACGACTGCTTAAAAC (sugars k3 d10 k3, PS): the target mRNA inhibition turned out to be 5%.

On to TACTATATTTAAGGCC (sugars k3 d10 k3, PS), for which the target mRNA inhibition came out at 1%.

As for TACTATCCCATCACTG (sugars k3 d10 k3, PS), the target mRNA inhibition was found to be 42%.

In the case of TACTCCATGAAGAAGC (sugars k3 d10 k3, PS), the target mRNA inhibition was -26%.

For TACTCTAATCACTGTC (sugars k3 d10 k3, PS), the target mRNA inhibition amounted to 15%.

As for TACTGAAGAGCATTGG (sugars k3 d10 k3, PS), the target mRNA inhibition was found to be 71%.

Regarding TACTTAAATTACTAGC (sugars k3 d10 k3, PS), the target mRNA inhibition was found to be 28%.

On to TAGACCAACTAAGCGA (sugars k3 d10 k3, PS), for which the target mRNA inhibition is -9%.

As for TAGAGAAGAATCCCCC (sugars k3 d10 k3, PS), the target mRNA inhibition was 34%.

With TAGAGGGCCTCTATTG (sugars k3 d10 k3, PS), the target mRNA inhibition was 39%.

Turning to TAGCAGCGGGATCAGA (sugars k3 d10 k3, PS), the target mRNA inhibition was 32%.

Turning to TAGCTTGACAAGCAAT (sugars k3 d10 k3, PS), the target mRNA inhibition was found to be 12%.

In the case of TAGCTTGGCCAAGTCT (sugars k3 d10 k3, PS), the target mRNA inhibition worked out at 19%.

TAGGATCCTCTACGCA (sugars k3 d10 k3, PS): the target mRNA inhibition turned out to be 23%.

With TAGGCTTTAAATGACG (sugars k3 d10 k3, PS), the target mRNA inhibition turned out to be 26%.

Regarding TAGGTATGAGCTTCAG (sugars k3 d10 k3, PS), the target mRNA inhibition was found to be 4%.

On to TAGTACTATAGCATCT (sugars k3 d10 k3, PS), for which the target mRNA inhibition was 49%.

As for TAGTGTAAAACATTGC (sugars k3 d10 k3, PS), the target mRNA inhibition amounted to 35%.

For TAGTTCTTCGGTTAAA (sugars k3 d10 k3, PS), the target mRNA inhibition was found to be 6%.

In the case of TATAAGGTCAATAGTG (sugars k3 d10 k3, PS), the target mRNA inhibition was 38%.

As for TATACTTCTCCAATAC (sugars k3 d10 k3, PS), the target mRNA inhibition worked out at 18%.

On to TATAGCTTGACAAGCA (sugars k3 d10 k3, PS), for which the target mRNA inhibition was 19%.

Take TATCCTGATATTGGAT (sugars k3 d10 k3, PS): the target mRNA inhibition was 24%.

Take TATCTTAGTAACCTAT (sugars k3 d10 k3, PS): the target mRNA inhibition came to 21%.

On to TATTCCAGGATTAATG (sugars k3 d10 k3, PS), for which the target mRNA inhibition is 29%.

Consider TATTGGTATTAATTCG (sugars k3 d10 k3, PS), for which the target mRNA inhibition worked out at 13%.

Consider TATTTAAGAACTCCAC (sugars k3 d10 k3, PS), for which the target mRNA inhibition is 26%.

Regarding TATTTAGAGGGCCTCT (sugars k3 d10 k3, PS), the target mRNA inhibition was 34%.

Regarding TATTTCGGCTTCTTTT (sugars k3 d10 k3, PS), the target mRNA inhibition is 47% and 65%.

For the sequence TATTTTAAACGGGTCA (sugars k3 d10 k3, PS), the target mRNA inhibition turned out to be 3%.

As for TCAAAATCCTGAATGG (sugars k3 d10 k3, PS), the target mRNA inhibition was 38%.

As for TCAAACTAAGCTACTA (sugars k3 d10 k3, PS), the target mRNA inhibition is -1%.

With TCAAGGATGTATATAG (sugars k3 d10 k3, PS), the target mRNA inhibition worked out at 6%.

As to TCAAGTCAAGCTCCTG (sugars k3 d10 k3, PS), the target mRNA inhibition was 3%.

Turning to TCACCAAATTGCACTC (sugars k3 d10 k3, PS), the target mRNA inhibition is 21%.

With TCACCGGAATTCGATC (sugars k3 d10 k3, PS), the target mRNA inhibition is -263%.

Take TCACGGATTTTTACCA (sugars k3 d10 k3, PS): the target mRNA inhibition stood at 28%.

As for TCACTGCAAGGTCTCA (sugars k3 d10 k3, PS), the target mRNA inhibition worked out at 48%.

For the sequence TCAGACAAGATTCATG (sugars k3 d10 k3, PS), the target mRNA inhibition was found to be 31%.

Regarding TCAGCCTTTATCACTC (sugars k3 d10 k3, PS), the target mRNA inhibition came to 13%.

Regarding TCAGTACGAAACTCCC (sugars k3 d10 k3, PS), the target mRNA inhibition is 41%.

Consider TCATCCTACCACTCCC (sugars k3 d10 k3, PS), for which the target mRNA inhibition came out at 34%.

Turning to TCATGGATTTCAAGGT (sugars k3 d10 k3, PS), the target mRNA inhibition was 51%.

Turning to TCCAGCATAAAGCTGA (sugars k3 d10 k3, PS), the target mRNA inhibition is -9%.

In the case of TCCAGTCCCTGAAGGT (sugars k3 d10 k3, PS), the target mRNA inhibition was found to be 12%.

With TCCCATAACTGATCTG (sugars k3 d10 k3, PS), the target mRNA inhibition turned out to be 31%.

Regarding TCCCATCACTGAAGCC (sugars k3 d10 k3, PS), the target mRNA inhibition amounted to 44%.

Turning to TCCCCAATGGAGGTAT (sugars k3 d10 k3, PS), the target mRNA inhibition stood at 9%.

With TCCCCCCCAAGATTGC (sugars k3 d10 k3, PS), the target mRNA inhibition was -3%.

For TCCCCCCCGCCTCAGT (sugars k3 d10 k3, PS), the target mRNA inhibition was found to be 16%.

Turning to TCCCCTTCAAGCACCG (sugars k3 d10 k3, PS), the target mRNA inhibition is 19%.

With TCCTCAATCCACTTGA (sugars k3 d10 k3, PS), the target mRNA inhibition was determined as 44%.

Take TCCTCCGTGTGGTTGC (sugars k3 d10 k3, PS): the target mRNA inhibition was 18%.

For the sequence TCCTTATTTAGAGGGC (sugars k3 d10 k3, PS), the target mRNA inhibition was 29%.

Regarding TCCTTCTATAGTCTGA (sugars k3 d10 k3, PS), the target mRNA inhibition was 14%.

Consider TCGCCTCCTCCGTGTG (sugars k3 d10 k3, PS), for which the target mRNA inhibition is 33%.

Take TCGGTGCCTTTAGTGA (sugars k3 d10 k3, PS): the target mRNA inhibition was 29%.

For the sequence TCGGTTAAAAATAGGT (sugars k3 d10 k3, PS), the target mRNA inhibition was determined as 16%.

As to TCTAACATAGTTCAAC (sugars k3 d10 k3, PS), the target mRNA inhibition was 29%.

In the case of TCTATAGTCTGAAGAA (sugars k3 d10 k3, PS), the target mRNA inhibition is 26%.

Take TCTCCCACCTGTCTAA (sugars k3 d10 k3, PS): the target mRNA inhibition came to 23%.

For the sequence TCTGAACCGGAGCAGG (sugars k3 d10 k3, PS), the target mRNA inhibition amounted to 19%.

As to TCTGACTTTGTATGTA (sugars k3 d10 k3, PS), the target mRNA inhibition was determined as 48%.

On to TCTGATAACGAAGAGA (sugars k3 d10 k3, PS), for which the target mRNA inhibition is 21%.

For TCTGCGGCCCCCCAGT (sugars k3 d10 k3, PS), the target mRNA inhibition is 25%.

Turning to TCTTACTGGGTCTGGC (sugars k3 d10 k3, PS), the target mRNA inhibition came to 45%.

In the case of TCTTCGGTTAAAAATA (sugars k3 d10 k3, PS), the target mRNA inhibition turned out to be 19%.

TCTTGAAGACTGTTGC (sugars k3 d10 k3, PS): the target mRNA inhibition is 44%.

Take TGAACCCCGTCCTGGA (sugars k3 d10 k3, PS): the target mRNA inhibition was 3%.

Take TGAAGTGTACTATCCC (sugars k3 d10 k3, PS): the target mRNA inhibition is 72% and 88%.

As for TGAATTACTTCCGTTA (sugars k3 d10 k3, PS), the target mRNA inhibition is 36%.

Turning to TGAATTCAACTGGAAG (sugars k3 d10 k3, PS), the target mRNA inhibition turned out to be 36%.

Consider TGACCCTACTGAAGAG (sugars k3 d10 k3, PS), for which the target mRNA inhibition is 21%.

Take TGACGCAATTCTCCCT (sugars k3 d10 k3, PS): the target mRNA inhibition was found to be 33%.

Turning to TGAGAACTGCTCTAGT (sugars k3 d10 k3, PS), the target mRNA inhibition was 35%.

For the sequence TGAGATGGACATTGCC (sugars k3 d10 k3, PS), the target mRNA inhibition was 74% and 92%.

With TGAGTGTTCCTGCATG (sugars k3 d10 k3, PS), the target mRNA inhibition was 36%.

On to TGATCCCAACTCATCT (sugars k3 d10 k3, PS), for which the target mRNA inhibition worked out at 14%.

Regarding TGCAAGGTCTCATACA (sugars k3 d10 k3, PS), the target mRNA inhibition is 32%.

For TGCACTCGCTCCTTCC (sugars k3 d10 k3, PS), the target mRNA inhibition was 33%.

With TGCATCGAGGTGAGGG (sugars k3 d10 k3, PS), the target mRNA inhibition is 21%.

As for TGCCAATATTTGCCCC (sugars k3 d10 k3, PS), the target mRNA inhibition is 20%.

TGCCATGGTTGATATT (sugars k3 d10 k3, PS): the target mRNA inhibition turned out to be 37%.

As to TGCCCAAATTAATGCA (sugars k3 d10 k3, PS), the target mRNA inhibition came to 29%.

Consider TGCCCTTAGCTTTTTG (sugars k3 d10 k3, PS), for which the target mRNA inhibition is 56%.

Regarding TGCCGACCTCACGGAT (sugars k3 d10 k3, PS), the target mRNA inhibition is 24%.

Regarding TGCCTACCACTCTAAG (sugars k3 d10 k3, PS), the target mRNA inhibition was -10%.

As for TGCCTTTAGGATTCTA (sugars k3 d10 k3, PS), the target mRNA inhibition came to 45%.

In the case of “TGCCTTTAGGATTCTAGACA (sugars e5 d10 e5, PS)”, the target mRNA inhibition was 39% and 51%.

For TGCGCTGGCTGCCTCA (sugars k3 d10 k3, PS), the target mRNA inhibition is 25%.

With TGCGGTTTCCTCAAGC (sugars k3 d10 k3, PS), the target mRNA inhibition was 26%.

On to TGCTACTCTTCTAAGT (sugars k3 d10 k3, PS), for which the target mRNA inhibition is 19%.

On to TGCTGATAAACTCACT (sugars k3 d10 k3, PS), for which the target mRNA inhibition stood at 46%.

As to TGGAAGCTCCTTCTAT (sugars k3 d10 k3, PS), the target mRNA inhibition is -19%.
